Results published in patent publication US6579696B1, “Polymyxin B conjugates” (priority 1992, dated 2003).
In brackets after ≈: the same amount, converted by molar mass. Like-named read-outs stand apart in the source and are kept apart here. Ends that are not written are not given here.

Assays:
[1] = molecular target: Fc receptors of the human U937 monocyte/macrophage cell line (human); assay: saturation binding of 125I-IgG to 2×10^5 U937 cells
[2] = molecular target: Fc receptors of the human U937 monocyte/macrophage cell line (human); assay: 1×10^-8 M 125I-IgG on 2×10^5 U937 cells, no competitor
[3] = vancomycin after reaction with crosslinker, aqueous solution
Description: Vancomycin in phosphate buffer was reacted with each of the following compounds: sulfosuccinimidyl 6-[3-(2-pyridyldithio)propionamide]hexanoate (“sulfo-LC-SPDP”), m-maleimidobenzoyl-N-hydroxysulfosuccinimide ester (“sulfo-MBS”), sulfosuccinimidyl(4-iodoacetyl)aminobenzoate (“sulfo-SIAB”), and sulfosuccinimidyl 4-(p-maleimidophenyl)butyrate (“sulfo-SMPB”). All four crosslinking agents react with a primary amino group on the vancomycin molecule, resulting in the formation of an amide bond. […] Finally, vancomycin derivatized by sulfo-SIAB posesses an iodo group, which can also react with a sulfhydryl group on either reduced IgG or derivatized IgG, by nucleophilic substitution for the iodo group. […] The mixtures were incubated with agitation at ambient temperature.

[4] = system: Staphylococcus epidermidis; assay: MIC and MBC; type: cell-based
[5] = system: S. aureus; assay: MIC testing against S. aureus; type: cell-based, Staph. aureus; conditions: Staphylococcus aureus
Description: 1.5 ml fractions were collected. The fractions in the void volume were pooled and sterile filtered. The activity of the conjugate was determined by standard MIC testing against S. aureus.

[6] = system: E. coli H16; type: cell-based; conditions: Table 42
[7] = system: Salmonella 34576; conditions: Table 43
[8] = system: E. coli 25922
[9] = system: E. coli H16
[10] = system: E. coli 25922; type: cell-based; conditions: Table 42
[11] = system: E. coli 0111:B4
[12] = molecular target: avidin (Sigma) (UniProt P02701); assay: capture ELISA: PMB-Cys-Biotin on avidin-coated wells, detected with chicken anti-PMB 1/1000; maximally diluted sample of a 5-fold series from 10 ng/ml
Chain of avidin (Sigma) (P02701 25-152 limits assumed): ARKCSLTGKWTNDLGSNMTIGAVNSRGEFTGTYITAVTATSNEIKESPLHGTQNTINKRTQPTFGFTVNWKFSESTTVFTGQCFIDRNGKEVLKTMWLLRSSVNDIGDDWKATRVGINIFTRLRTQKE

[13] = system: E. coli HB101; type: cell-based; set-up: key: −: no agglutination; +: microagglutination; +++: macroagglutination; conditions: avidin beads loaded with compound
Description: (§1) 100 ul polystyrene beads (Spherotech […], 5% w/v) were aliquoted to two 1.5 mL microcentrifuge tubes, centrifuged 1 min at 12,000 g in microcentrifuge and washed 2×with 1 ml PBS (vortexed and recentrifuged 1-2 min after each wash). The beads were resuspended in 900 ul PBS, and 100 ul of 1 mg/ml solution of avidin (Sigma) added, and the tubes rotated overnight at room temperature. The beads were pelleted, and washed sequentially as described above with 1 ml PBS, PBS+0.5% tween 20 (PBST), and PBS, and each sample resuspended in 200 ul PBS. The samples were pooled and stored at 4 degrees.
(§2) 20 ul avidin coated beads were aliquoted into 2×1.5 ml microcentrifuge tubes, and non-specifically binding sites blocked by rotating with 1 ml PBS+1% BSA for 1 hr at room temperature. […] The samples were pelleted, and washed with 1 ml PBS, repelleted and resuspended with 20 ul PBS. III Bacterial Agglutination Assays
(§3) 5 ul of each resin was added to 20 ul bacteria (1/10 dilution of a saturated overnight culture) in independant depression wells (2 wells/bacteria tested). The samples were incubated 30 min at 37 degrees, swirled, and agglutination scored. (Note that −=no agglutination, +=microagglutination and +++=macroagglutination)

[14] = system: Salmonella 34576; type: cell-based; set-up: key: −: no agglutination; +: microagglutination; +++: macroagglutination; conditions: avidin beads loaded with compound
Description: as §1, §2, §3

[15] = system: E. coli 0111:B4; type: cell-based; set-up: key: −: no agglutination; +: microagglutination; +++: macroagglutination; conditions: avidin beads loaded with compound
Description: as §1, §2, §3

[16] = molecular target: avidin and chicken anti-PMB antibody (Gallus gallus, UniProt P02701)
Chain of avidin and chicken anti-PMB antibody (P02701 25-152): as the sequence (P02701 25-152 limits assumed) above
Description: The capture ELISA was performed as described below. […] The coating suspensions were decanted, and all wells were washed three times using PBS+0.5% Tween 20 (PBST). In order to block non-specific binding sites, 100 ul of 1% BSA (Sigma, St. Louis, Mo.) in PBS (blocking solution) was then added to each well, and the plates were incubated for 1 hr. at 37° C.
The blocking solution was decanted, and duplicate samples of 150 ul of either PMB-Cy-Biotin or PMB-Cy-Fl added to the first well of a dilution series. The initial testing concentration of the premixed conjugate was 10 ng/ml in blocking buffer (see above), followed by 5 fold dilutions in blocking buffer. This was accomplished by serially transferring 30 ul aliquots to 120 ul buffer, mixing, and repeating the dilution into a fresh well. After the final dilution, 30 ul was removed from the well such that all wells contained 120 ul final volume. A total of 2 such dilutions were performed. […] Following this incubation, the serially diluted samples were decanted, and the wells were washed six times using PBST (Phosphate-Buffered Saline with Tween). To each well, 100 ul of 1/1000 diluted chicken anti-PMB antibody or chicken preimmune, diluted in blocking buffer was added, and the plate incubated 1 hr at 37° C. The antibody solutions were decanted and the plates were washed as described above. To each well, 100 ul of 1/1000 diluted rabbit anti-chicken IgG alkaline phosphatase (Sigma) diluted in blocking buffer was added, and the plate incubated 1 hr at 37° C. The antibody solutions were decanted and the plates were washed as described above, substituting 50 nM Na2CO3, pH 9.5 for the PBST in the final wash. The plates were developed by the addition of 100 ul of a solution containing 1 mg/ml para-nitro phenyl phosphate (Sigma, St. Louis, Mo.) dissolved in 50 nM Na2CO3, 10 mM MgCl2, pH 9.5 to each well, and incubating the plates at room temperature in the dark overnight. […] Only the ELISA readings from the maximally diluted samples in each dilution series are shown.

[17] = system: E. coli J5; type: cell-based; set-up: key: −: no agglutination; +: microagglutination; +++: macroagglutination; conditions: for Agglutination by avidin beads: Table 53
Description: as §1, §2, §3
To determine if free Immunoadaptor™ compounds can also stably bind surface exposed bacterial structures, agglutination assays were performed using bacteria prebound to Immunoadaptor™ compounds. The assay was performed with J5 bacteria, since the agglutination signal (see table above) was the strongest with this strain. 40 ul avidin coated resin was blocked for 1 hr at room temperature with 1 ml PBS+1% BSA, pelleted as described above, and resuspended in 40 ul PBS. […] The following assays were performed:
Incubated 1 hr at 37 degrees in depression well, swirled and agglutination scored.
Incubated 10 min at 37 degrees then added 5 ul avidin coated beads. Incubated 1 hr at 37 degrees in depression well, swirled and agglutination scored.
Incubated 15 min at 37 degrees, pelleted cells by centrifugation, washed with 100 ul PBS (resuspended cells with micropipetter) and repelleted. Cells were resuspended in 80 ul PBS, 20 ul aliquots distributed to depression well, 5 ul avidin coated beads added, and, incubated 1 hr at 37 degrees, swirled and agglutination scored.

[18] = system: J5 bacteria phagocytosed by J774A.1 mouse macrophage cell line; type: cell-based; conditions: Table 57; + anti-avidin (1/1000)
[19] = system: E. coli HB101; assay: MIC and MBC in broth; type: cell-based; conditions: Example 38
[20] = system: S. enteriditis LPS; assay: Polarization of PMB-FITC by LPS; type: binding; conditions: 50 ul of 1 mg/ml LPS; PMB-FITC 1 to 150
[21] = system: K. pneumoniae LPS; assay: Polarization of PMB-FITC by LPS; type: binding; conditions: 50 ul of 1 mg/ml LPS; PMB-FITC 1 to 150
[22] = system: V. cholera LPS; type: binding; conditions: 50 ul of 1 mg/ml LPS; PMB-FITC 1 to 150
Description: (§4) The data for this example were generated on a fluorescence polarimeter (FPM-1, provided by Jolley Consulting and Research, Inc.) based on this optical configuration. The instrument and software generates output which includes vertical intensity (IV), horizontal intensity (IH), total intensity (IT) after correction of horizontal intensity by a constant (g), fluorescence polarization in millipolarization unit (mP) and lamp feed-back, a correction for lamp and photomultiplier tube variations.
(§5) Each of ten different lipopolysaccarides (LPS) were dissoved in distilled water at a concentration of 1 mg/ml.

[23] = system: E. coli 026B6 LPS; type: binding; conditions: 50 ul of 1 mg/ml LPS; PMB-FITC 1 to 150
Description: as §4, §5

[24] = system: S. flexneri LPS; type: binding; conditions: 50 ul of 1 mg/ml LPS; PMB-FITC 1 to 150
Description: as §4, §5

[25] = system: E. coli 011B4 LPS; type: binding; conditions: 50 ul of 1 mg/ml LPS; PMB-FITC 1 to 150
Description: as §4, §5

[26] = system: S. marsecens LPS; assay: Polarization of PMB-FITC by LPS; type: binding; conditions: 50 ul of 1 mg/ml LPS; PMB-FITC 1 to 150
[27] = system: R. sphaeroides LPS; assay: Polarization of PMB-FITC by LPS; type: binding; conditions: 50 ul of 1 mg/ml LPS; PMB-FITC 1 to 150
[28] = system: S. typhimurium LPS; assay: Polarization of PMB-FITC by LPS; type: binding; conditions: 50 ul of 1 mg/ml LPS; PMB-FITC 1 to 150
[29] = system: P. aeruginosa LPS; assay: Polarization of PMB-FITC by LPS; type: binding; conditions: 50 ul of 1 mg/ml LPS; PMB-FITC 1 to 150
[30] = system: E. coli HB101
[31] = molecular target: polymyxin B-cysteine-maleimide-fluorescein (PMB-Cys-Mal-FL) (Bacillus polymyxa); assay: fluorescence polarization, antibody 5×10^-8 M with PMB-Cys-Mal-FL 10^-7 M (free conjugate: 740)
[32] = molecular target: polymyxin B-cysteine-maleimide-fluorescein (PMB-Cys-Mal-FL) (Bacillus polymyxa); assay: quenching of PMB-Cys-Mal-FL coated on E. coli 0111:B4; antibody 1 ug/ml (without antibody: 40)
[33] = molecular target: polymyxin B-cysteine-maleimide-fluorescein (PMB-Cys-Mal-FL) (Bacillus polymyxa); assay: fluorescence intensity of PMB-Cys-Mal-FL with antibody
[34] = molecular target: polymyxin B-cysteine-maleimide-fluorescein (PMB-Cys-Mal-FL) (Bacillus polymyxa); assay: quenching of PMB-Cys-Mal-FL coated on E. coli 0111:B4; antibody 22 ug/ml (without antibody: 40)
[35] = molecular target: polymyxin B-cysteine-maleimide-fluorescein (PMB-Cys-Mal-FL) (Bacillus polymyxa); assay: fluorescence polarization, antibody 5×10^-8 M with PMB-Cys-Mal-FL 10^-7 M (free conjugate: 845)
[36] = molecular target: polymyxin B-cysteine-maleimide-fluorescein (PMB-Cys-Mal-FL) (Bacillus polymyxa); assay: fluorescence polarization, antibody 5×10^-8 M with PMB-Cys-Mal-FL 10^-7 M (free conjugate: 32.5 mP)
[37] = molecular target: polymyxin B-cysteine-maleimide-fluorescein (PMB-Cys-Mal-FL) (Bacillus polymyxa); assay: quenching of PMB-Cys-Mal-FL coated on E. coli 0111:B4; antibody 2 ug/ml (without antibody: 40)
[38] = molecular target: polymyxin B-cysteine-maleimide-fluorescein (PMB-Cys-Mal-FL) (Bacillus polymyxa); assay: fluorescence quenching on PMB-Cys-Mal-FL coated E. coli
[39] = molecular target: avidin (Sigma) (UniProt P02701); assay: capture ELISA: PMB-Cys-FL on avidin-coated wells, chicken preimmune 1/1000 (double control)
[40] = molecular target: avidin (Sigma) (UniProt P02701); assay: capture ELISA: PMB-Cys-FL on avidin-coated wells, detected with chicken anti-PMB 1/1000
[41] = Table 40, first number of the cell

## 125I-labelled human IgG (New England Nuclear) (antibody)
[1]
  saturating concentration: 10 nM
[2]
  bound radioactivity (cpm): 12000 cpm

## CN[C@H](CC(C)C)C(=O)N[C@H]1C(=O)N[C@@H](CC(N)=O)C(=O)N[C@H]2C(=O)N[C@H]3C(=O)N[C@H](C(=O)N[C@H](C(=O)O)c4cc(O)cc(O)c4-c4cc3ccc4O)[C@H](O)c3ccc(c(Cl)c3)Oc3cc2cc(c3O[C@@H]2O[C@H](CO)[C@@H](O)[C@H](O)[C@H]2O[C@H]2C[C@](C)(N)[C@H](O)[C@H](C)O2)Oc2ccc(cc2Cl)[C@H]1O [Vanco, Vancomycin]
[3]
  Soluble: Yes
[4]
  MBC: 2.5 µg/mL (≈ 1.73 µM)
[5]
  MIC: 1 to 2 µg/mL (≈ 0.69 to 1.38 µM)
[5]; read-out: MIC w/o IgG
  MIC: 1 µg/mL (≈ 0.69 µM)

## ALYKKLLKKLLKSAKKLG [C18G, ala-leu-tyr-lys-lys-leu-leu-lys-lys-leu-leu-lys-ser-ala-lys-lys-leu-gly, reference compound]
[6]
  BDA: 5 to 10 µg/mL
[7]
  MIC: 5 to 10 µg/mL
[8]
  MIC: 2 to 4 µg/mL
[9]
  MIC: 30 µg/mL
[10]
  BDA: 1 µg/mL
[11]; 0111:B4
  MIC: 10 µg/mL

## Biotinylated Cysteinyl PMB (PMB-Cys-Biotin) (peptide)
[12]
  absorbance at 410 nm: 1.25 A410

## Biotinylated Cysteinyl PMB [PMB-Cys-Biotin]
[13]
  Agglutination: +
[14]
  Agglutination: +
[15]
  Agglutination: −
[16]; Anti-PMB test antibody, Avidin coated wells, maximally diluted sample
  ELISA absorbency at 410 nm: 1.252
[16]; Anti-PMB, PBS coated wells
  ELISA absorbency at 410 nm: 0.016
[16]; Preimmune, Avidin coated wells
  ELISA absorbency at 410 nm: 0.014
[16]; Preimmune, PBS coated wells
  ELISA absorbency at 410 nm: 0.019
[17]; Chase format
  Agglutination by avidin beads: +
[17]; Premix format
  Agglutination by avidin beads: +
[17]; Wash + Chase format
  Agglutination by avidin beads: +
[17]; avidin beads loaded with compound
  Agglutination: +++
[18]
  % Macrophage with phagocytosed bacteria: 21%
  Recovered bacterial colonies: 74
[11]; [41]
  MIC: 1.0 µg/mL

## Limulus antilipopolysaccharide factor [native LALF]
[19]
  MIC: 16 µg/mL

## PMB-5-Thiocabamoyl-fluorescein [PMB-FITC]
[20]
  mP: 255.9
[21]
  mP: 258.5
[22]
  mP: 174.8
[23]
  mP: 70.3
[24]
  mP: 246.3
[25]
  mP: 254.6
[26]
  mP: 262.6
[27]
  mP: 224.7
[28]
  mP: 266.8
[29]
  mP: 236.4
[30]; [41]
  MIC: 0.2 µg/mL
[30]; Table 44
  MIC: 0.2 µg/mL

## mouse monoclonal anti-fluorescein antibody (#4-4-20)
[31]
  IH (horizontal intensity): 25
[32]
  FLUORESCENCE (AFU): 16 AFU
[33]
  percent of the intensity signal quenched: 95%
[34]
  FLUORESCENCE (AFU): 15 AFU
[35]
  IV (vertical intensity): 61
[36]
  mP (millipolarization): 390 mP
[37]
  FLUORESCENCE (AFU): 15 AFU
[38]
  fraction of fluorescein available to bind the antibody: 0.67

## polymyxin B-cysteine-maleimide-fluorescein (PMB-Cys-Mal-FL) (peptide)
[39]
  absorbance at 410 nm: 0.01 A410
[40]
  absorbance at 410 nm: 0.033 A410
